Where a name gives a salt, the structure may show the parent alone. Read-outs that look alike come from different tables or passages of the source.
Biological target: DPP4 (Homo sapiens, UniProt P27487)
Experiment: DPP4 activity assay (DPP4 inhibitor screening assay kit, Cayman);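 further: fluorescence read at excitation 360 nm and emission 460 nm after the enzyme reaction ran 30 min at 37 °C in a 96-well plate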
Type: biochemical
Parameters: purchased Cayman Chemical, Ann Arbor, MI, USA
Details: control mean 100.0; for remaining activity at 10 µM: 0.5 h
[1] = 10 µM, Figure 1A raw data, read-out: DPP4 activity in library screen, Exp 1
[2] = 10 µM, Figure 1A raw data, read-out: DPP4 activity in library screen, Exp 2
[3] = 10 µM, Figure 1A raw data, read-out: DPP4 activity in library screen, Exp 3
[4] = 10 µM, mean of Exp 1-3, read-out: DPP4 activity in library screen, Mean

DPP4, sequence (P27487 whole entry): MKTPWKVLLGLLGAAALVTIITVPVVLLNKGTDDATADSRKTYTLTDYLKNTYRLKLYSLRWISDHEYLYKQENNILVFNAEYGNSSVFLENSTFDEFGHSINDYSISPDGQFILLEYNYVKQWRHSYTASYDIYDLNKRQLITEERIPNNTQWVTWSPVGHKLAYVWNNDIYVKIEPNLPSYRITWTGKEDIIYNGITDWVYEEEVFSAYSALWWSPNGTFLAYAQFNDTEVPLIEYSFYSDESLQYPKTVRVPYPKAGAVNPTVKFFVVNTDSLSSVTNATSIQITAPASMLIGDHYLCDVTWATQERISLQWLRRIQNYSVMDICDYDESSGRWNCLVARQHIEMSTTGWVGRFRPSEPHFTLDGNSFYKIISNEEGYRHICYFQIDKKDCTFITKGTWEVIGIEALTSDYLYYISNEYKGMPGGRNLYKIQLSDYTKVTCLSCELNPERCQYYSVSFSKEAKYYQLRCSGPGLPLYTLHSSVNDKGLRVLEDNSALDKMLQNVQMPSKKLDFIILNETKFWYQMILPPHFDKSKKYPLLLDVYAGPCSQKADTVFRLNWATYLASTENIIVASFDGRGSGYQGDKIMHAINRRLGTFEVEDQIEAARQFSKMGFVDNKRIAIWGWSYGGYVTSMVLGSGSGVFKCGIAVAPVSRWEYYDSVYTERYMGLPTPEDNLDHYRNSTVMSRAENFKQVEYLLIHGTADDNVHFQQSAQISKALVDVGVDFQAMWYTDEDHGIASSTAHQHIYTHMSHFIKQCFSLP

Compound | remaining activity at 10 µM [1] [%] | remaining activity at 10 µM [2] [%] | remaining activity at 10 µM [3] [%] | remaining activity at 10 µM [4] [%] | further results
C[C@@H]1CC[C@@]2(OC1)O[C@H]1C[C@H]3[C@@H]4CC=C5C[C@@H](O[C@@H]6O[C@H](CO)[C@@H](O[C@@H]7O[C@@H](C)[C@H](O)[C@@H](O)[C@H]7O)[C@H](O)[C@H]6O[C@@H]6O[C@@H](C)[C@H](O)[C@@H](O)[C@H]6O)CC[C@]5(C)[C@H]4CC[C@]3(C)[C@H]1[C@@H]2C [Dioscin] | 100 | 100 | 79.1 | 93.1 | 
COc1cc(O)c(CC=C(C)C)c(O)c1C(=O)/C=C/c1ccc(O)cc1 [Xanthohumol] | 94.5 | 102 | 126 | 107 | 
COC(=O)[C@@H]1[C@H]2C[C@H]3c4[nH]c5ccccc5c4CCN3C[C@@H]2CC[C@@H]1O [Yohimbine HCl] |  |  |  |  | remaining activity at 10 µM (read-out: DPP4 activity in library screen, Exp 1, 10 µM, Figure 1A raw data): 92.1%; remaining activity at 10 µM (read-out: DPP4 activity in library screen, Exp 2, 10 µM, Figure 1A raw data): 92.7%; remaining activity at 10 µM (read-out: DPP4 activity in library screen, Exp 3, 10 µM, Figure 1A raw data): 90.1%; remaining activity at 10 µM (read-out: DPP4 activity in library screen, Mean, 10 µM, mean of Exp 1-3): 91.6%
O=c1[nH]cnc2nc[nH]c12 [Hypoxanthine] | 96.7 | 99.3 | 98.5 | 98.2 | 
COc1ccc(-c2cc(=O)c3c(O)cc(O[C@@H]4O[C@H](CO[C@@H]5O[C@@H](C)[C@H](O)[C@@H](O)[C@H]5O)[C@@H](O)[C@H](O)[C@H]4O)cc3o2)cc1O [Diosmin] | 66.8 | 69 | 74.6 | 70.1 | 
C[C@@H]1O[C@@H](OC[C@H]2O[C@@H](Oc3c(-c4ccc(O)c(O)c4)oc4cc(O)cc(O)c4c3=O)[C@H](O)[C@@H](O)[C@@H]2O)[C@H](O)[C@H](O)[C@H]1O [Rutin] | 78.7 | 73.8 | 50.1 | 67.5 | 
O=C1CCC[C@@H]2[C@H]3CCCN4CCC[C@@H](CN12)[C@@H]34 [(+)-Matrine] |  |  |  |  | DPP4 activity in library screen, Exp 1 (10 µM, Figure 1A raw data): 101.6; DPP4 activity in library screen, Exp 2 (10 µM, Figure 1A raw data): 98; DPP4 activity in library screen, Exp 3 (10 µM, Figure 1A raw data): 94.4; DPP4 activity in library screen, Mean (10 µM, mean of Exp 1-3): 98.0
CC(C)(O)[C@H]1CC[C@@](C)([C@H]2[C@@H](O)C[C@@]3(C)[C@@H]4C[C@H](O[C@@H]5O[C@H](CO)[C@@H](O)[C@H](O)[C@H]5O)[C@H]5C(C)(C)[C@@H](O[C@@H]6OC[C@@H](O)[C@H](O)[C@H]6O)CC[C@@]56C[C@@]46CC[C@]23C)O1 [Astragaloside A] |  |  |  |  | DPP4 activity in library screen, Exp 1 (10 µM, Figure 1A raw data): 103.8; DPP4 activity in library screen, Exp 2 (10 µM, Figure 1A raw data): 108.8; DPP4 activity in library screen, Exp 3 (10 µM, Figure 1A raw data): 101.9; DPP4 activity in library screen, Mean (10 µM, mean of Exp 1-3): 104.8
C=CCc1ccc(O)c(-c2ccc(O)c(CC=C)c2)c1 [Honokiol] | 106 | 94.1 | 105 | 102 | 
C[C@H]1C(=O)O[C@@H]2CCN3CC=C(COC(=O)[C@](C)(O)[C@]1(C)O)[C@H]23 [Monocrotaline] | 70.9 | 95.8 | 85.1 | 83.9 | 
O=C1C[C@@H](c2ccc(O)cc2)Oc2cc(O)cc(O)c21 [Naringenin] | 80.4 | 87.5 | 94.1 | 87.3 | 
COc1ccc(CCC(=O)c2c(O)cc(O[C@@H]3O[C@H](CO)[C@@H](O)[C@H](O)[C@H]3O[C@@H]3O[C@@H](C)[C@H](O)[C@@H](O)[C@H]3O)cc2O)cc1O [Neohesperidin dihydrochalcone (Nhdc), Neohesperidin dihydrochalcone] | 90.3 | 78 | 91.2 | 86.5 | 
COc1ccc(-c2cc(=O)c3c(O)cc(O)cc3o2)cc1O [Diosmetin] | 77.2 | 77.5 | 77.6 | 77.4 | 
CCC1=C[C@@H]2CN3CCc4c([nH]c5ccccc45)[C@@](C(=O)OC)(C2)[C@@H]13 [Catharanthine] |  |  |  |  | DPP4 activity in library screen, Exp 1 (10 µM, Figure 1A raw data): 117.2; DPP4 activity in library screen, Exp 2 (10 µM, Figure 1A raw data): 93.7; DPP4 activity in library screen, Exp 3 (10 µM, Figure 1A raw data): 139.2; DPP4 activity in library screen, Mean (10 µM, mean of Exp 1-3): 116.7
COc1ccc(-c2cc(=O)c3c(OC)c(OC)c(OC)c(OC)c3o2)cc1 [Tangeretin] | 75.6 | 80.1 | 66.2 | 74 | 
O=C(O)[C@H]1O[C@@H](Oc2cc3oc(-c4ccccc4)cc(=O)c3c(O)c2O)[C@H](O)[C@@H](O)[C@@H]1O [Baicalin] | 71.4 | 51.3 | 111 | 77.9 | 
CC1(C)O[C@H]2CC(=O)OC[C@]23[C@H]2CC[C@@]4(C)[C@H](c5ccoc5)OC(=O)[C@H]5O[C@]54[C@]2(C)C(=O)C[C@@H]13 [Limonin] | 104 | 106 | 91.4 | 101 | 
CN(C)CCc1ccc(O)cc1 [Hordenine] | 90.7 | 95.7 | 95.6 | 94 | 

Compound | remaining activity at 10 µM [1] [%] | remaining activity at 10 µM [2] [%] | remaining activity at 10 µM [3] [%] | remaining activity at 10 µM [4] [%] | further results
Cc1cc2c(C(C)C)c(O)c(O)c(C=O)c2c(O)c1-c1c(C)cc2c(C(C)C)c(O)c(O)c(C=O)c2c1O [Gossypol] | 54.6 | 59.8 | 51.6 | 55.3 | 
Oc1cc2c(cc1O)[C@@H]1c3ccc(O)c(O)c3OC[C@]1(O)C2 [Hematoxylin] | 70.1 | 72 | 84.9 | 75.7 | 
OC[C@H]1O[C@@H](Oc2cc(O)cc(/C=C/c3ccc(O)cc3)c2)[C@H](O)[C@@H](O)[C@@H]1O [Polydatin] | 89.6 | 81.3 | 70 | 80.3 | 
O=c1c(O)c(-c2ccc(O)c(O)c2)oc2cc(O)ccc12 [Fisetin] | 72.3 | 74 | 51.8 | 66 | 
COc1cc(C=O)ccc1O [Vanillin] | 105 | 95.3 | 51.5 | 83.8 | 
C=C[C@H]1CN2CC[C@H]1C[C@H]2[C@H](O)c1ccnc2ccccc12 [Cinchonidine] | 90.5 | 97.4 | 97.3 | 95.1 | 
O=c1c2ccccc2oc2ccccc12 [Xanthone] | 88.9 | 79.9 | 77.7 | 82.2 | 
C=C1C(=O)[C@]23[C@H](O)[C@H]1CC[C@H]2[C@@]12CO[C@]3(O)[C@@H](O)[C@@H]1C(C)(C)CC[C@@H]2O [Oridonin] | 81 | 85.4 | 96.9 | 87.8 | 
COc1ccc2cc1Oc1ccc(cc1)C[C@H]1c3cc(c(OC)cc3CCN1C)Oc1c(OC)c(OC)cc3c1[C@H](C2)N(C)CC3 [Tetrandrine] | 99.9 | 98 | 99.8 | 99.2 | 
CCCCCCCCCCCCCCCC(=O)OC[C@@]1(O)C[C@@]23CC[C@@H]4c5ccoc5CC[C@@]4(C)[C@@H]2CC[C@@H]1C3 [Cafestol palmitate] |  |  |  |  | DPP4 activity in library screen, Exp 1 (10 µM, Figure 1A raw data): 96.3; DPP4 activity in library screen, Exp 2 (10 µM, Figure 1A raw data): 108.3; DPP4 activity in library screen, Exp 3 (10 µM, Figure 1A raw data): 144; DPP4 activity in library screen, Mean (10 µM, mean of Exp 1-3): 116.2
CNCC(O)c1ccc(O)cc1 (centres unmarked) [Synephrine] | 98.7 | 76.9 | 87.7 | 87.8 | 
COc1ccc(-c2oc3c(CC=C(C)C)c(O[C@@H]4O[C@H](CO)[C@@H](O)[C@H](O)[C@H]4O)cc(O)c3c(=O)c2O[C@@H]2O[C@@H](C)[C@H](O)[C@@H](O)[C@H]2O)cc1 [Icariin] | 76 | 74.5 | 78.7 | 76.4 | 
C[C@H]1CC[C@]2(NC1)O[C@H]1C[C@H]3[C@@H]4CC[C@H]5C[C@@H](O[C@@H]6O[C@H](CO)[C@H](O[C@@H]7O[C@H](CO)[C@@H](O)[C@H](O[C@@H]8OC[C@@H](O)[C@H](O)[C@H]8O)[C@H]7O[C@@H]7O[C@H](CO)[C@@H](O)[C@H](O)[C@H]7O)[C@H](O)[C@H]6O)CC[C@]5(C)[C@H]4CC[C@]3(C)[C@H]1[C@@H]2C [Tomatine] | 103 | 91.8 | 124 | 106 | 
xenoclauxin |  |  |  |  | DPP4 activity in library screen, Exp 1 (10 µM, Figure 1A raw data): 105.6; DPP4 activity in library screen, Exp 2 (10 µM, Figure 1A raw data): 107.6; DPP4 activity in library screen, Exp 3 (10 µM, Figure 1A raw data): 132.5; DPP4 activity in library screen, Mean (10 µM, mean of Exp 1-3): 115.2
CCn1cc(C(=O)O)c(=O)c2ccc(C)nc21 [Nalidixic acid] | 95.6 | 94.7 | 93.5 | 94.6 | 
COc1ccc2ccc(=O)oc2c1CC=C(C)C [Osthole] | 93.1 | 95.2 | 87.3 | 91.9 | 
O=C(/C=C/c1ccc(O)cc1)c1ccc(O)cc1O [Isoliquiritigenin] |  |  | 31.6 |  | 
